# Measurements published in patent publication US20240252688A1, “COMPOSITIONS AND METHODS FOR ENHANCED PROTEIN PRODUCTION” (HDT Bio Corp., priority 2021, published 2024).
# Counter-ions that a name gives are not always drawn.
# Legend:
# [1] = test system: NF-κB; experiment: NP-35 co-transfection: NF-κB induction; type: cell-based, human; details: highest concentrations of NP-35-formulated compound
# Experimental: The objective of this experiment was to evaluate co-transfection of LNP (e.g., NP-35) with lead small molecule inhibitor compounds for enhancing protein expression from repRNA in transfected cells. […] LNP was formulated according to NP-35 formulation. Additionally, nanoparticles were also formulated according to […] formulation. About 5×10^4 A549-Dual cells were incubated at 37° C. with 5% CO2 for 18-24 hours with the compound at a concentration ranging from 1 μg to 0.06 ng. The cells were then treated with repRNA-nLuc, IFN, and nanoparticles (NP-35 or NP-30). The treated cells were incubated at 37° C. with 5% CO2 for 18-24 hours. nLuc expression was measured by Nano-GLO assay and plotted against the concentration of repRNA-nLuc that was used for the transfection (FIG. 14A-14H).
# [2] = test system: IFIT2; experiment: NP-35 co-transfection: IFIT2 induction; type: cell-based, human; details: NP-35-formulated compound, A549-Dual cells
# [3] = test system: BALB/c mice; experiment: Systemic (IV) compounds with IM NP-1/repRNA-ZIKV-117: serum ZIKV-117; type: in vivo; details: for ZIKV-117 expression compared to no compound group: compound IV (Dinaciclib 5 mg/kg, CDKI-73 5 mg/kg, AZD4573 1 mg/kg), 10 μg repRNA-ZIKV-117 IM, days 3-28
# Experimental: The purpose of the experiment was to evaluate the effect of systemically administered compound inhibitors on protein expression.
# A molar ratio of nitrogen to phosphate (N:P) for each of the formulation was adjusted. […] Each compound was formulated as an aqueous solution or suspension following instructions from the vendor (MedChemExpress). At the same time as systemic compound treatment, mice were given 10 μg repRNA-encoding ZIKV-117 mAb complexed to nanoparticles by IM injection in the hind leg. Mice were bled on days 3, 5, 7, 10, 14, 21 and 28 after administration of NP-1/repRNA-ZIKV-117, and assayed for ZIKV-117 levels in serum. The positive control group received an IFNAR-1 blocking monoclonal antibody (MAR1-5A3) by intraperitoneal (IP) injection one day before administration of NP-1/repRNA-ZIKV-117.
# [4] = test system: C57BL/6 mice; experiment: IM injection of repRNA-SEAP with nanoparticle-encapsulated inhibitors: serum SEAP; type: in vivo; details: 500 μM dose level versus equivalent no compound group, days 3-28
# Experimental: The ten candidate compounds were formulated in NP-1 nanoparticle emulsion to evaluate their effect on expression when co-delivered with repRNA. All compounds were readily soluble in non-polar solvents which enabled dissolution in the lipophilic squalene oil phase of NP-1. A probe sonication process was adapted to formulate candidate compounds in 1 mL batches of nanoparticle emulsions. The z-average nanoparticle diameter was measured by dynamic light scattering (DLS) and ranged from 110-130 nm. Activity of compounds formulated in nanoparticle emulsions was tested both in vitro (FIG. 11A). Cells were transfected with 20 ng repRNA per well in the presence of IFN and delivered with empty nanoparticles (no inhibitor) or nanoparticle encapsulating a compound inhibitor delivered at a calculated 0.5 μM per well. […] C57BL/6 female mice (6-8 weeks old; n=3/group) were injected by IM route with 10 μg repRNA-SEAP complexed with empty nanoparticles (no compound) or nanoparticles encapsulating a small molecule inhibitor at 500 μM. The positive control group received an IFNAR-1 blocking monoclonal antibody (MAR1-5A3) by intraperitoneal (IP) injection one day before IM injection of NP-1/repRNA-SEAP. […]
# [5] = test system: NF-κB; experiment: Single-point screen: NFκB activation (SEAP reporter); type: cell-based, human; details: A549-Dual cells, compound 50 μM pre-treatment, NP-1+mRNA 20 ng/well + IFN; for fold induction at 50 µM: Homo sapiens, 24 h, read-out: fold NFkB over IFN
# Excerpt: (§1) The cells produce secreted embryonic alkaline phosphatase (SEAP), under the control of the interferon beta […] minimal promoter fused to five NF-κB binding sites. The cells also secrete lucia luciferase under the control of IFIT2 promoter.
# [6] = test system: A549-Dual cells; experiment: Single-point screen: cell viability by CellTiter-Glo; details: A549-Dual cells incubated overnight with compound at 50 μM, then NP-1+mRNA 20 ng/well + IFN 1:50
# Experimental: Finally, cell lysates were assayed with the CellTiter-GLO® assay (Promega) to obtain a luminescent-based measure of cell viability. In summary, the readouts from the high throughput screen included the primary measure of nLuc protein expression and three secondary readouts: IFIT, NF-κB and cell viability.
# For each assay, A549-dual cells were plated at a seeding density of about 5×10^4 cells per well. Cells were incubated overnight with compounds at 50 microMolar (μM) in 1% v/v dimethyl sulfoxide (DMSO). For control wells, 1% DMSO was added to each well. After about 24 hours, the culture medium was removed, and cells were transfected with NP-1+mRNA at 20 ng/mRNA/well in Opti-MEM® media (Thermofisher). Interferon (IFN) was diluted to 1:50 in all test wells except for the RNA only wells and media only wells. Anti-IFN was diluted 1:1000 in “RNA+anti-IFN+IFN” wells. Cells were incubated for 4 hours, and culture medium was added to the Opti-MEM® medium. After 24 hours, assay supernatants were collected and analyzed for nLuc expression, IFIT2 (qLuc), and NFκB (qBLUE-SEAP™, InvivoGen) activation. Cells were then lysed, and cell viability was determined by CellTiter-Glo® (Promega) assay.
# [7] = test system: A549-Dual cells; experiment: Single-point kinase inhibitor library screen: nLuc expression from NP-1+mRNA-nLuc in IFN-treated cells; type: cell-based, human; details: compound 50 μM pre-treatment, NP-1+mRNA 20 ng/well + IFN; for fold induction at 50 µM: Homo sapiens, read-out: fold nLuc over RNA + IFN
# Experimental: as §1
# To measure protein expression from mRNA, which is the primary readout for compound down selection, mRNA encoding a secreted version of nanoluciferase (mRNA-nLuc) was used. Protein expression was measured via a luminometer using standard techniques.
# As additional criterion, expression in compound treated cells was compared relative to mRNA-transfected cells without IFN (“RNA only”) (data not shown).
# A library of small molecule kinase inhibitors was screened for the ability to enhance expression of mRNA-encoded genes when co-delivered with mRNA.
# [8] = test system: IFIT2; experiment: Single-point screen: IFIT2 activation (Lucia luciferase, QUANTI-Luc); type: cell-based, human; details: A549-Dual cells, compound 50 μM pre-treatment, NP-1+mRNA 20 ng/well + IFN; for fold induction at 50 µM: Homo sapiens, 24 h, read-out: fold IFIT over IFN
# Excerpt: as §1
# [9] = molecular target: mouse IFN alpha/beta receptor (IFNAR-1) (mouse) (UniProt P33896); experiment: cell-based or functional assay
# mouse IFN alpha/beta receptor (IFNAR-1) (mouse), sequence (P33896 27-590 limits assumed): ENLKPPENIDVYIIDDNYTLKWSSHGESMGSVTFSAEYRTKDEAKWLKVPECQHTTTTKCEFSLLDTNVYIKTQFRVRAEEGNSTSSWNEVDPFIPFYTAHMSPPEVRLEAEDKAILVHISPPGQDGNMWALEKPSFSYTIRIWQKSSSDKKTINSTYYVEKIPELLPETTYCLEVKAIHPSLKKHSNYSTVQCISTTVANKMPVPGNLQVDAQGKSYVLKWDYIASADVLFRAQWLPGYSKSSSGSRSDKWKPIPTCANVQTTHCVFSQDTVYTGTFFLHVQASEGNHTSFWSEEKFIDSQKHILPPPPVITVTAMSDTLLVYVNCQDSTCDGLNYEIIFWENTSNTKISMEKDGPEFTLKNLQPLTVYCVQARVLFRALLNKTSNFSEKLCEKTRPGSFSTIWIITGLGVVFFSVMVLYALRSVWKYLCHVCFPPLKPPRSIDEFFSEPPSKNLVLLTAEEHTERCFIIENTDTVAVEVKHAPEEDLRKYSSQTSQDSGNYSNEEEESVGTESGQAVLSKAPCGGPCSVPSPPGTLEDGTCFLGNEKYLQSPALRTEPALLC
# [10] = test system: A549-Dual cells; experiment: NP-35 co-encapsulating repRNA-nLuc and Dinaciclib: nLuc expression; type: cell-based, human; details: 0.5 mM Dinaciclib co-encapsulated, A549-Dual cells + IFN
# Experimental: Briefly, A549-Dual cells were incubated at 37° C. with 5% CO2 for 18-24 hours. […] About 5×10^4 cells were transfected with the formulation at different concentrations in the presence of IFN. The transfected cells were incubated at 37° C. with 5% CO2 for 18-24 hours. nLuc expression was measured by Nano-GLO assay and plotted against the concentration of repRNA-nLuc that was used for the transfection (FIG. 15).
Molecule,fold induction at 50 µM [5],% viability [6] [%],fold induction at 50 µM [7],fold induction at 50 µM [8],also measured
"Nc1nc(N[C@H]2C[C@@H]3CC[C@H]2C3)sc1C(=O)c1ccccc1[N+](=O)[O-] [MC180295, [4-amino-2-[[(1S,2S,4R)-2-bicyclo[2.2.1]heptanyl]amino]-1,3-thiazol-5-yl]-(2-nitrophenyl)methanone]",–,–,–,–,IFN-beta mediated NF-κB induction relative to cells transfected with NP-35 [1]: slight increase in IFN-beta mediated NF-κB induction
"CC(C)n1cnc2c(NCc3nc4c(F)c(F)ccc4[nH]3)nc(N3CCCC[C@H]3CCO)nc21 [CDK12-IN-3, 2-[(2S)-1-[6-[(4,5-difluoro-1H-benzimidazol-2-yl)methylamino]-9-propan-2-ylpurin-2-yl]piperidin-2-yl]ethanol]",–,–,–,–,IFIT2 induction [2]: significant dose-dependent reduction in IFIT2 induction
"CC(C)c1c2cc(-c3ccnc(NC4CCC(NC5CCOCC5)CC4)n3)ccc2nn1C (stereo not shown) [LY2857785, 4-N-[4-(2-methyl-3-propan-2-ylindazol-5-yl)pyrimidin-2-yl]-1-N-(oxan-4-yl)cyclohexane-1,4-diamine]",–,–,–,–,IFN-beta mediated NF-κB induction relative to cells transfected with NP-35 [1]: slight increase in IFN-beta mediated NF-κB induction
"CC(=O)N[C@@H]1CCC[C@H](C(=O)Nc2cc(-c3cnn4c3CC(C)(C)C4)c(Cl)cn2)C1 [AZD4573, (1S,3R)-3-acetamido-N-[5-chloro-4-(5,5-dimethyl-4,6-dihydropyrrolo[1,2-b]pyrazol-3-yl)pyridin-2-yl]cyclohexane-1-carboxamide]",–,–,–,–,"ZIKV-117 expression compared to no compound group [3]: higher total expression than no compound group but not statistically significant; total protein (SEAP) expression, AUC of expression kinetics [4]: significant increase in total protein expression; IFIT2 induction [2]: significant dose-dependent reduction in IFIT2 induction"
"COc1ccc(F)cc1-c1cc(NC(=O)[C@@H]2CCCNC2)ncc1Cl [CDK-IN-2, (3R)-N-[5-chloro-4-(5-fluoro-2-methoxyphenyl)pyridin-2-yl]piperidine-3-carboxamide]",0.28,23,157,1.06,IFN-beta mediated NF-κB induction relative to cells transfected with NP-35 [1]: slight increase in IFN-beta mediated NF-κB induction; IFIT2 induction [2]: significant dose-dependent reduction in IFIT2 induction
"CNc1nc(C)c(-c2nc(Nc3cccc(S(N)(=O)=O)c3)ncc2F)s1 [CDKI-73, 3-[[5-fluoro-4-[4-methyl-2-(methylamino)-1,3-thiazol-5-yl]pyrimidin-2-yl]amino]benzenesulfonamide]",–,–,–,–,ZIKV-117 expression compared to no compound group [3]: higher total expression than no compound group but not statistically significant; IFN-beta mediated NF-κB induction relative to cells transfected with NP-35 [1]: slight increase in IFN-beta mediated NF-κB induction
IFNAR-1 blocking monoclonal antibody (MAR1-5A3),–,–,–,–,SEAP expression in serum of C57BL/6 mice on day seven after IM injection of NP-1/repRNA-SEAP [9]: 10 fold
"CCN1CCN(Cc2ccc(NC(=O)Nc3ccc(Oc4cc(NC)ncn4)cc3)cc2C(F)(F)F)CC1 [AST 487, 1-[4-[(4-ethylpiperazin-1-yl)methyl]-3-(trifluoromethyl)phenyl]-3-[4-[6-(methylamino)pyrimidin-4-yl]oxyphenyl]urea]",0.14,32,183,0.19,–
"C[C@@]1(O)CCC[C@H]1n1c(=O)c(C(F)F)cc2cnc(NC3CCN(S(C)(=O)=O)CC3)nc21 [PF-06873600, 6-(difluoromethyl)-8-[(1R,2R)-2-hydroxy-2-methylcyclopentyl]-2-[(1-methylsulfonylpiperidin-4-yl)amino]pyrido[2,3-d]pyrimidin-7-one]",0.83,55,120,1.08,–
"CN(c1ccc(NC(=O)Nc2ccc(OC(F)(F)F)cc2)cc1)c1ccnc(Nc2cccc(S(N)(=O)=O)c2)n1 [GW806742X (hydrochloride), 1-[4-[methyl-[2-(3-sulfamoylanilino)pyrimidin-4-yl]amino]phenyl]-3-[4-(trifluoromethoxy)phenyl]urea]",0.91,41,842,3.93,–
"COCCOc1ccc(-c2cn(-c3ccccc3)c3nc[nH]c(=O)c23)cc1 [DMX-5804, 5-[4-(2-methoxyethoxy)phenyl]-7-phenyl-3H-pyrrolo[2,3-d]pyrimidin-4-one]",1.35,92,267,0.4,–
"Cl.O=C(NC1CCNCC1)c1n[nH]cc1NC(=O)c1c(Cl)cccc1Cl [AT7519 (Hydrochloride), 4-[(2,6-dichlorobenzoyl)amino]-N-piperidin-4-yl-1H-pyrazole-5-carboxamide; hydrochloride]",0.43,42,123,0.88,–
"CCc1cnn2c(NCc3ccc[n+]([O-])c3)cc(N3CCCC[C@H]3CCO)nc12 [Dinaciclib, 2-[(2S)-1-[3-ethyl-7-[(1-oxidopyridin-1-ium-3-yl)methylamino]pyrazolo[1,5-a]pyrimidin-5-yl]piperidin-2-yl]ethanol]",–,–,–,–,nLuc expression relative to NP-35/repRNA-nLuc without Dinaciclib [10]: significantly enhanced nLuc expression; ZIKV-117 expression compared to positive control (anti-IFNAR-1) ([3]; Dinaciclib 5 mg/kg IV): more rapid and higher magnitude expression; ZIKV-117 expression compared to no compound group [3]: significantly enhanced ZIKV-117 expression; IFIT2 induction [2]: significant dose-dependent reduction in IFIT2 induction
COc1ccc(CCNCc2ccc(OCc3ccc(Cl)nc3)c(OC)c2)cc1OC [SBE13 (Hydrochloride)],–,105,–,–,fold NFkB over IFN [5]: 0.73 fold; fold nLuc over RNA + IFN [7]: 179.07 fold; fold IFIT over IFN [8]: 0.32 fold
